{"source": "patent US20040038824A1", "about": "“Agrochemical composition” (priority 2000, published 2004)", "test_system": "Wheat", "assay": "Greenhouse test of the safener's protective action on wheat against herbicide damage (post-emergence tank mix)", "format": "in vivo", "details": "2- to 3-leaf stage, tank mix with herbicide propynyl (R)-2[4-[(5-chloro-3-fluoro-2-pyridynyl]oxy-phenoxy]propanoate, 20 days post-application", "description": "Wheat seeds are sown in the greenhouse in plastic pots comprising 0.5 l of garden soil.", "data": [{"smiles": "CCCCCC(C)OC(=O)COc1ccc(Cl)c2cccnc12", "note": "(stereo not shown) [safener of the formula I, 1-methylhexyl (5-chloroquinolin-8-yloxy)acetate tetrahydrate]", "values": [{"measurement": "protective action of the safener in comparison with the plants treated with the herbicide only", "result": "very effective"}]}]}
